# Tested on: E. faecalis DSM 2570
# Test: MIC 50, broth micro-dilution, DSM strains
# Assay type: cell-based, Enterococcus faecalis
# Conditions: not given
# Excerpt: 3.2 Against Selected Bacteria of the ESKAPE Panel and Enterococcus faecalis (DSM Strains)
# Tested reference compounds. Amikacin sulfate (Cat. No. 01693, Chem-Impex), Gentamicin sulfate (Cat. No. G4918, Sigma Aldrich).
# Microbial strains. Enterococcus faecalis DSM 2570, Klebsiella pneumoniae DSM 26371, Acinetobacter baumannii DSM 105126, Enterobacter cloacae 3MRGN (clinical bronchial aspirate isolate).
# Culture media and equipment. BBL™ Mueller Hinton Broth 2 (Lot. BCBW1143, Cat. No. 70192, Sigma); Trypcase Soy Blood-agar plates (Cat. No. 43001, Biomérieux); Cryoinstant (contains 15% glycerol; Cat. No. 822070ZA, VWR International); GasPak™ EZ Standard Incubation Container (Cat. No. 260671, Becton Dickinson); GasPak™ EZ Campy Container System Sachets (Cat. No. 260680, Becton Dickinson); 96-well deep well plate, 1 mL (Cat. No. 0030506.200, Eppendorf); Plate lid (Cat. No. 0030131.525, Eppendorf); 96-well plate, F-bottom (Cat. No. 260860, Nunc); Incubator (Sartorius Certomat BS-1); Laminar flow (Heraeus HS12); UV/VIS meter (Perkin Elmer Lambda Bio+); Platereader (Tecan Infinite M200 Pro).
# Compound preparation. Compounds were prepared in MH2 media at a concentration of 5 mM and stored at 4° C. For testing, solutions of 128 μM were prepared in MH2, for tests against E. faecalis a solution of 512 μM was prepared. Out of these working solutions, 400 μL was transferred to wells in the first column of 96-well deep well plates. Each compound was transferred in triplicate. Plates were previously filled with 200 μL of MH2 media in all wells except for the wells in the first column. After compound and antibiotic addition, the compounds were serial two-fold diluted by transferring 200 μL from the first to the second column, then from the second to the third column and so on. Finally, 200 μL was removed from the last column.
# Inoculum preparation. Microorganisms used were all revived from 15% glycerol storage in Croinstant tubes at −28° C. by plating them on blood agar plates. A. baumanni, and E. cloacae were grown aerobically at 37° C., E. faecalis was grown microaerophilically at 37° C., and K. pneumoniae was grown aerobically at 37° C. Plates were stored at 4° C. for up to two weeks, after which new plates were prepared from −28° C. A single colony was inoculated in MH2 media and grown at 37° C. and 200 rpm to an optical density (measured by UV/Vis spectroscopy) of 0.6-0.8 at 600 nm. Out of these suspensions, actual inoculums were prepared by diluting them to an optical density of 0.1 in MH2 media. From these inoculums, 200 μL was transferred to each well, resulting in a final compound concentration range of 64 μM-31.3 nM for, K. pneumoniae, A. baumanni, and E. cloacae, and 256 μM-125 nM for E. faecalis. Plates inoculated with E. faecalis were placed inside a GasPak™ Container System with GasPak™ Campy Container System sachets. All plates were incubated at 200 rpm for 18 h under the microorganism culturing conditions mentioned above.
# MIC determination. After 18 h of growth, 200 μL was transferred to a 96-well F-bottom plate. The optical density was determined by a plate reader at 600 nm, with 10 s shaking before reading. Triplicate measurements were averaged, and a growth curve was plotted in Excel. The first column in which the growth reached half the value of maximum growth was determined as the MIC50 value for that particular compound.
# MIC50. The MIC50 of a compound was assigned at which the bacterial growth reached half the value of maximum growth.
row,SMILES,MIC50
1,"NCC[C@H](O)C(=O)N[C@@H]1CC(N)[C@@H](O[C@H]2OC(CN)[C@@H](O)CC2N)[C@H](F)C1OC1O[C@H](CO)[C@@H](O)C(N)[C@H]1O (stereo partly shown) [ABX5024, Tobra-AHB-F]",16 to 32 µM
2,"NCCC(O)C(=O)NC1CC(N)C(OC2OC(CN)C(O)C(O)C2N)C(F)C1OC1OC(CO)C(O)C(N)C1O (stereo not shown) [ABX4007, KanaB-AHB-F]",32 to 64 µM
3,"N=C(N)N[C@@H]1[C@@H](O)[C@@H](O[C@@H]2[C@@H](O)[C@H](O[C@H]3O[C@H](CN)[C@@H](O)[C@@H](O)[C@H]3N)[C@@H](N)C[C@H]2NC(=O)[C@@H](O)CCN)O[C@H](CO)[C@H]1O [ABX4005, 3′Epi-KanaB-AHB-Gua]",32 to 64 µM
4,"NCCC(O)C(=O)NC1CC(N)C(OC2OC(CN)C(O)C(O)C2N)C(O)C1OC1OC(CO)C(O)C(N)C1O (stereo not shown) [ABX4001, KanaB-AHB]",32 to 64 µM
5,"NCC[C@H](O)C(=O)N[C@@H]1CC(N)[C@@H](O[C@H]2OC(CN)[C@@H](O)[C@@H](O)C2N)[C@H](F)C1OC1O[C@H](CO)[C@@H](O)C(N)[C@H]1O (stereo partly drawn) [ABX4003, 3′Epi-KanaB-AHB-F]",64 µM
6,"N=C(N)NC1[C@@H](O)C(OC2[C@@H](O)[C@H](O[C@H]3OC(CN)[C@@H](O)CC3N)C(N)C[C@H]2NC(=O)[C@@H](O)CCN)O[C@H](CO)[C@H]1O (stereo partly shown) [ABX5005, Tobra-AHB-Gua]",16 µM
7,"NCCC(O)C(=O)NC1CC(N)C(OC2OC(CN)C(O)C(O)C2O)C(F)C1OC1OC(CO)C(O)C(N)C1O (stereo not drawn) [ABX3005, 3′Epi-KanaA-AHB-F]",64 µM
8,"N=C(N)NC1[C@@H](O)C(OC2[C@@H](O)[C@H](O[C@H]3OC(CN)[C@@H](O)[C@H](O)C3N)C(N)C[C@H]2NC(=O)[C@@H](O)CCN)O[C@H](CO)[C@H]1O (stereo partly shown) [ABX4009, KanaB-AHB-Gua]",64 to 128 µM

# Same assay, conditions: Enterococcus faecalis, DSM2570, read-out: MIC 50
row,SMILES,MIC50
1,"N=C(NCCO)NC1[C@@H](O)C(OC2[C@@H](F)[C@H](O[C@H]3OC(CN)[C@@H](O)CC3N)C(N)C[C@H]2NC(=O)[C@@H](O)CCN)O[C@H](CO)[C@H]1O (stereo partly shown) [ABX5029, Tobra-AHB-F-Gua 2-hydroxy-ethyl]",64 µM
2,"N=C(NC[C@H]1CNCCO1)NC1[C@@H](O)C(OC2[C@@H](F)[C@H](O[C@H]3OC(CN)[C@@H](O)CC3N)C(N)C[C@H]2NC(=O)[C@@H](O)CCN)O[C@H](CO)[C@H]1O (stereo partly drawn) [ABX5043, Tobra-AHB-F-Gua (R) morpholin-2-yl methyl]",16 µM
3,"N=C(NCc1ccncc1)NC1[C@@H](O)C(OC2[C@@H](F)[C@H](O[C@H]3OC(CN)[C@@H](O)CC3N)C(N)C[C@H]2NC(=O)[C@@H](O)CCN)O[C@H](CO)[C@H]1O (stereo partly shown) [ABX5048, Tobra-AHB-F-Gua pyridin-4-yl methyl]",8 µM
4,"NCC[C@H](O)C(=O)N[C@@H]1C[C@H](N)[C@@H](O[C@H]2O[C@H](CN)[C@@H](O)[C@H](O)[C@H]2O)[C@H](O)[C@H]1O[C@H]1O[C@H](CO)[C@@H](O)[C@H](N)[C@H]1O [Amikacin, amikacin, reference compound]",> 64 µM
5,"N=C(NC[C@@H]1CCNC1)NC1[C@@H](O)C(OC2[C@@H](F)[C@H](O[C@H]3OC(CN)[C@@H](O)CC3N)C(N)C[C@H]2NC(=O)[C@@H](O)CCN)O[C@H](CO)[C@H]1O (stereo partly drawn) [ABX5039, Tobra-AHB-F-Gua (R) pyrrolidine-3-ylmethyl]",16 µM
6,"N=C(NCC1CCOC1)NC1[C@@H](O)C(OC2[C@@H](F)[C@H](O[C@H]3OC(CN)[C@@H](O)CC3N)C(N)C[C@H]2NC(=O)[C@@H](O)CCN)O[C@H](CO)[C@H]1O (stereo partly shown) [ABX5051, Tobra-AHB-F-Gua tetrahydrofuran-3-yl methyl]",8 µM
7,"C[C@@H](N)CCNC(=N)NC1[C@@H](O)C(OC2[C@@H](F)[C@H](O[C@H]3OC(CN)[C@@H](O)CC3N)C(N)C[C@H]2NC(=O)[C@@H](O)CCN)O[C@H](CO)[C@H]1O (stereo partly drawn) [ABX5047, Tobra-AHB-F-Gua (R) 3-amino-butyl]",2 to 4 µM
8,"N=C(N)NC1[C@@H](O)C(OC2[C@@H](F)[C@H](O[C@H]3OC(CNCCO)[C@@H](O)CC3N)C(N)C[C@H]2NC(=O)[C@@H](O)CCN)O[C@H](CO)[C@H]1O (stereo partly shown) [ABX5045, 6N-2-hydroxy-ethyl-Tobra-AHB-F-Gua]",8 to 16 µM
9,"N=C(NC[C@@H]1CCCN1)NC1[C@@H](O)C(OC2[C@@H](F)[C@H](O[C@H]3OC(CN)[C@@H](O)CC3N)C(N)C[C@H]2NC(=O)[C@@H](O)CCN)O[C@H](CO)[C@H]1O (stereo partly drawn) [ABX5026, Tobra-AHB-F-Gua (S) pyrrolidine-2-yl-methyl]",32 µM
10,"CNCCNC(=N)NC1[C@@H](O)C(OC2[C@@H](F)[C@H](O[C@H]3OC(CN)[C@@H](O)CC3N)C(N)C[C@H]2NC(=O)[C@@H](O)CCN)O[C@H](CO)[C@H]1O (stereo partly shown) [ABX5038, Tobra-AHB-F-Gua 2-(methylamino)ethyl]",16 µM
11,"N=C(N)NC1[C@@H](O)C(OC2[C@@H](F)[C@H](O[C@H]3OC(CN)[C@@H](O)[C@H](O)C3N)C(N)C[C@H]2NC(=O)[C@@H](O)CCN)O[C@H](CO)[C@H]1O (stereo partly shown) [ABX4006, KanaB-AHB-F-Gua]",16 to 32 µM
12,"N=C(NCC1CCCO1)NC1[C@@H](O)C(OC2[C@@H](F)[C@H](O[C@H]3OC(CN)[C@@H](O)CC3N)C(N)C[C@H]2NC(=O)[C@@H](O)CCN)O[C@H](CO)[C@H]1O (stereo partly shown) [ABX5046, Tobra-AHB-F-Gua tetrahydrofuran-2-yl methyl]",8 to 16 µM
13,"N=C(NC[C@@H]1CNCCO1)NC1[C@@H](O)C(OC2[C@@H](F)[C@H](O[C@H]3OC(CN)[C@@H](O)CC3N)C(N)C[C@H]2NC(=O)[C@@H](O)CCN)O[C@H](CO)[C@H]1O (stereo partly drawn) [ABX5040, Tobra-AHB-F-Gua (S) morpholin-2-yl methyl]",16 µM
14,"N=C(NCc1cnc[nH]1)NC1[C@@H](O)C(OC2[C@@H](F)[C@H](O[C@H]3OC(CN)[C@@H](O)CC3N)C(N)C[C@H]2NC(=O)[C@@H](O)CCN)O[C@H](CO)[C@H]1O (stereo partly shown) [ABX5050, Tobra-AHB-F-Gua imidazol-5-yl methyl]",8 to 16 µM
15,"N=C(NCCCO)NC1[C@@H](O)C(OC2[C@@H](F)[C@H](O[C@H]3OC(CN)[C@@H](O)CC3N)C(N)C[C@H]2NC(=O)[C@@H](O)CCN)O[C@H](CO)[C@H]1O (stereo partly shown) [ABX5041, Tobra-AHB-F-Gua 3-hydroxy-propyl]",4 to 8 µM
16,"N=C(N)NC1[C@@H](O)C(OC2[C@@H](F)[C@H](O[C@H]3OC(CN)[C@@H](O)[C@H](O)C3O)C(N)C[C@H]2NC(=O)[C@@H](O)CCN)O[C@H](CO)[C@H]1O (stereo partly drawn) [ABX3003, 3′epi-KanaA-AHB-F-Gua]",64 µM
17,"N=C(NCCCN)NC1[C@@H](O)C(OC2[C@@H](F)[C@H](O[C@H]3OC(CN)[C@@H](O)CC3N)C(N)C[C@H]2NC(=O)[C@@H](O)CCN)O[C@H](CO)[C@H]1O (stereo partly shown) [ABX5030, Tobra-AHB-F-Gua-3-amino-propyl]",32 µM
18,"N=C(N)NC1C(O)[C@@H](CO)OC(OC2C(F)[C@H](O[C@H]3OC(CN)[C@@H](O)CC3N)C(N)C[C@H]2NC(=O)[C@@H](O)CCN)[C@@H]1O (stereo partly shown) [ABX5006, Tobra-AHB-F-Gua]",4 to 8 µM
19,"N=C(NCCN)NC1C(O)[C@@H](CO)OC(OC2C(F)[C@H](O[C@H]3OC(CN)[C@@H](O)CC3N)C(N)C[C@H]2NC(=O)[C@@H](O)CCN)[C@@H]1O (stereo partly shown) [ABX5020, Tobra-AHB-F-Gua-2-amino-ethyl]",4 to 8 µM
20,"N=C(NCC1CC1)NC1[C@@H](O)C(OC2[C@@H](F)[C@H](O[C@H]3OC(CN)[C@@H](O)CC3N)C(N)C[C@H]2NC(=O)[C@@H](O)CCN)O[C@H](CO)[C@H]1O (stereo partly shown) [ABX5027, Tobra-AHB-F-Gua cyclopropylmethyl]",32 µM

# From patent publication US20220127297A1, “Novel Antibacterial 3"-Derivatives Of 4,6-Disubstituted 2,5-Dideoxystreptamine Aminoglycoside Antibiotics” (AGILeBiotics B.V., priority 2018, published 2022)
